Experimental data published in US20110313672A1, “CELLULAR ANTIOXIDANT ACTIVITY (CAA) ASSAY” (CORNELL UNIVERSITY, priority 2007, published 2011).
Where two headings read alike, the source gives them in different places.

Columns and labels:
HepG2 cells [1] = assay: Cellular antioxidant activity (CAA) assay: inhibition of peroxyl radical-induced DCFH oxidation; format: cell-based, human; details: for EC50: Homo sapiens; for cellular antioxidant activity, result in words: no PBS wash protocol
Method: Cells (e.g., human hepatocellular carcinoma cells; HepG2) are seeded at a density of e.g., 6×10^4/well on a 96-well microplate in 100 μL growth medium/well. It is preferred that only the inside wells of e.g., a 96-well microplate are used for the assay, since the outer wells have increased variation compared to that of the inner wells. Twenty-four hours after seeding the growth medium is removed and the wells are washed with PBS. Triplicate wells are treated for 1 h with 100 μL of a test compound (e.g., pure phytochemical compounds or fruit extracts) plus 25 μM DCFH-DA dissolved in treatment medium.
600 μM ABAP is then applied to the cells in 100 μL HBSS and the 96-well microplate is placed into a plate reader e.g., Fluoroskan Ascent FL plate-reader (ThermoLabsystems, Franklin, Mass.) at 37° C. Emission at 538 nm is measured with excitation at 485 nm, for example every 5 min for 1 h. Each plate should include triplicate control and blank wells: control wells contain cells treated with DCFH-DA and oxidant; blank wells contain cells treated with dye and HBSS without oxidant.
A test compound is assayed in multiple wells of e.g., a 96-well cell culture plate. Some wells are washed with 100 μL of phosphate-buffered saline (PBS) prior to the addition of ABAP, while other wells were not washed prior to the addition of ABAP. It was noted that the measured antioxidant activity of some fruit extracts (e.g., blueberries) was different when a PBS wash was used compared to when there was no PBS wash (see Table 2; FIGS. 3 and 4). This is likely due to non-specific binding of certain antioxidant compounds to the outer membrane, or a reduced uptake of the compound, thus the ratio of antioxidant activity values obtained with a PBS wash compared to a non-PBS wash indicates the bioavailability of the test compound. In order to accurately measure the intracellular antioxidant activity of a test compound, a PBS wash prior to the addition of a peroxyl initiator (e.g, ABAP) is necessary. The values obtained for cells assayed using a PBS wash should be compared to values obtained for the same cells assayed without a PBS wash. One of skill in the art can plan and perform experiments on a test compound in the presence and absence of a PBS wash, in order to accurately assess the intracellular antioxidant capacity of the test compound.
After blank subtraction from the fluorescence readings, the area under the curve of fluorescence versus time is integrated to calculate the cellular antioxidant activity (CAA) value at each concentration of pure phytochemical compound or fruit extract as follows:
where ∫SA is the integrated area under the sample fluorescence versus time curve and ∫CA is the integrated area from the control curve. The median effective dose (EC50) was determined for the pure phytochemical compounds and fruit extracts from the median effect plot of log (fa/fu) vs. log (dose), where fa is the fraction affected and fu is the fraction unaffected by the treatment. To quantify intra-experimental variation, the EC50 values are stated as mean±SD for triplicate sets of data obtained from the same experiment. Inter-experimental variation is obtained for some representative pure phytochemical compounds and fruit extracts by averaging the fluorescence values from triplicate wells in each trial to obtain one EC50 value per experiment and calculating the mean±SD for at least four trials. In each experiment, a standard is used, for example quecetin, thus permitting the cellular antioxidant activities for a test compounds to be expressed as μmol quercetin equivalents (QE)/100 μmol compound. Fruit extracts are expressed as μmol QE/100 g fruit. In order to compare the antioxidant quality of different fruits, cellular antioxidant activity (CAA) is also calculated as μmol QE/100 μmol total phenolics.
Human hepatocellular carcinoma HepG2 cells were seeded at a density of 6×10^4/well on a 96-well microplate in 100 μL growth medium/well. […]

in vitro = details: human
Method: (§1) Briefly, HepG2 cells are seeded at 4×10^4/well on a 96-well plate in 100 μL growth medium and incubated for 24 h at 37° C. The medium is removed and the cells are washed with PBS. Treatments of fruit extracts or antioxidant compounds in 100 μL treatment medium (Williams' Medium E supplemented with 2 mM L-glutamine and 10 mM Hepes) are applied to the cells and the plates are incubated at 37° C. for 24 h. The treatment medium is removed and the cells are washed with PBS. A volume of 50 μL/well methylene blue staining solution (98% HBSS, 0.67% glutaraldehyde, 0.6% methylene blue) is applied to each well and the plate is incubated at 37° C. for 1 h.
(§2) Excess dye is removed by immersing the plate in fresh deionized water until the water appears clear. The excess water should be tapped out of the wells and the plate allowed to air-dry briefly before addition of 100 μL elution solution (49% PBS, 50% ethanol, 1% acetic acid) to each well. The microplate is then placed on a bench-top shaker for 20 minutes to allow uniform elution. The absorbance is read at 570 nm with blank subtraction using, for example a MRX II DYNEX spectrophotometer (DYNEX Inc., Chantilly, Va.). Concentrations of pure compounds or fruit extracts that decrease the absorbance by more than 10% when compared to the control are considered to be cytotoxic.
(§3) Cytotoxicity was measured using the method of Oliver et al. (31) with modifications by our laboratory (32). […] The medium was removed and the cells were washed with PBS. Treatments of fruit extracts or antioxidant compounds in 100 μL treatment medium (Williams' Medium E supplemented with 2 mM L-glutamine and 10 mM Hepes) were applied to the cells and the plates were incubated at 37° C. for 24 h. The treatment medium was removed and the cells were washed with PBS. A volume of 50 μL/well methylene blue staining solution (98% HBSS, 0.67% glutaraldehyde, 0.6% methylene blue) was applied to each well and the plate was incubated at 37° C. for 1 h. The dye was removed and the plate was immersed in fresh deionized water three times, or until the water was clear. The water was tapped out of the wells and the plate was allowed to air-dry briefly before 100 μL elution solution (49% PBS, 50% ethanol, 1% acetic acid) was added to each well. The microplate was placed on a bench-top shaker for 20 minutes to allow uniform elution. The absorbance was read at 570 nm with blank subtraction using the MRX II DYNEX spectrophotometer (DYNEX Inc., Chantilly, Va.). Concentrations of pure compounds or fruit extracts that decreased the absorbance by more than 10% when compared to the control were considered to be cytotoxic.
(§4) The median cytotoxic concentration (CC50) was calculated for each fruit.
(§5) Briefly, HepG2 cells were seeded at 4×10^4/well on a 96-well plate in 100 μL growth medium and incubated for 24 h at 37° C. The medium was removed, and the cells were washed with PBS. Flavonoids in 100 μL growth medium were applied to the cells, and the plates were incubated at 37° C. for 24 h. The medium was removed, and the cells were washed with PBS before a volume of 50 μL/well methylene blue staining solution (98% HBSS, 0.67% glutaraldehyde, 0.6% methylene blue) was applied to each well, and the plate was incubated at 37° C. for 1 h. The dye was removed, and the plate was immersed in fresh deionized water until the water was clear. The water was tapped out of the wells, and the plate was allowed to air-dry briefly before 100 μL of elution solution (49% PBS, 50% ethanol, 1% acetic acid) was added to each well. The microplate was placed on a benchtop shaker for 20 min to allow uniform
(§6) elution. The absorbance was read at 570 nm with blank subtraction using the MRX II Dynex spectrophotometer (Dynex Inc., Chantilly, Va.). The median cytotoxic concentration (CC50) was calculated for each flavonoid.

HepG2 cells [2] = assay: in vitro
Method: as §1, §2, §3, §4, §5, §6

[3] = HepG2, Example 1, Table 1, PBS wash, pure phytochemical compounds, mean ± SD, n=3, read-out: EC50 for inhibition of peroxyl radical-induced DCFH oxidation
[4] = HepG2, Example 1, Table 1, no PBS wash, pure phytochemical compounds, mean ± SD, n=3, read-out: EC50 for inhibition of peroxyl radical-induced DCFH oxidation

EC50 (HepG2 cells [1]; [3]) [µM] | EC50 (HepG2 cells [1]; [4]) [µM] | EC50 (HepG2 cells [1]; HepG2, Example 3, Table 7, PBS wash, flavonoids, mean ± SD, n=3, read-out: EC50) [µM] | EC50 (HepG2 cells [1]; HepG2, Example 3, Table 7, no PBS wash, flavonoids, mean ± SD, n=3, read-out: EC50) [µM] | EC50 (HepG2 cells [1]; HepG2, Example 3, text, no PBS wash, read-out: EC50) [µM] | Structure (SMILES) | CAA (HepG2 cells [1]; Example 3, Table 7, no PBS wash) | CC50 at 24 h (in vitro) [µM] | Cytotoxicity (cytotoxic concentration) (HepG2 cells [2]; human, 24 h) [µM] | cellular antioxidant activity, result in words (HepG2 cells [1]) | Cytotoxicity (cytotoxic concentration) (HepG2 cells [2]; Example 1, dose at which the cell number is reduced by more than 10% after 24 h treatment) [µM]
> 600 | > 200 | > 800 | 457 ± 47 | 457 ± 47 | Oc1cc(O)c2c(c1)O[C@H](c1ccc(O)c(O)c1)[C@H](O)C2 [Epicatechin, (−)-epicatechin] | 1.9 ± 0.2 μmol of QE/100 μmol | > 1000 | >500 |  | 
> 25 | > 25 |  |  |  | O=C(CCc1ccc(O)cc1)c1c(O)cc(O)cc1O [Phloretin, phloretin] |  |  | 25 | activity only at doses much higher than their cytotoxic concentrations | 
> 40 | > 40 |  |  |  | Oc1ccc(C=Cc2cc(O)cc(O)c2)cc1 [Resveratrol, resveratrol] |  |  |  | activity only at doses much higher than their cytotoxic concentrations | 40
